# Non-standard residues stand in square brackets, D forms with d. No end group written: not given here.
# Key:
# [1] = Body weight-reducing effect of intranasal TCTP-PTD 13-[D-Leu-4]-OB3; format: in vivo, mouse; details: for body weight after 10 days compared with PBS or OB3 / rate of increase in body weight for 10 days compared with PBS or OB3: ICR mice, intranasal 2 mg/kg once each day for 10 days
# Description: A peptide (SEQ ID NO: 124) comprising [D-Leu-4]-OB3 linked to L-PTD 13 or D-PTD 13 by a GG linker was designed. Furthermore, peptides (SEQ ID NO: 125, SEQ ID NO: 126 and SEQ ID NO: 127, respectively) comprising [D-Leu-4]-OB3 linked to each of D-TCTP-PTD 13M1, D-TCTP-PTD 13M2 or D-TCTP-PTD 13M3 by a GG linker were designed. The peptides were synthesized with a purity of 90% or higher by Peptron Inc.
# 4-week-old male ICR mice were used as experimental animals and divided into the following groups, each consisting of 7 animals: PBS, [D-Leu-4]-OB3, L-PTD 134D-Leu-41-OB3, and D-PTD 134D-Leu-41-OB3 groups. Each of [D-Leu-4]-OB3, L-PTD 134D-Leu-41-OB3 and D-PTD 13-[D-Leu-4]-OB3 was administered intranasally to each mouse at a dose of 2 mg/kg once each day for 10 days at a uniform time point, while a change in the body weight of each of the experimental animals was measured.
# [2] = Appetite-inhibiting effect (food intake) of intranasal TCTP-PTD 13-[D-Leu-4]-OB3; format: in vivo, mouse; details: ICR mice, intranasal 2 mg/kg; for cumulative food intake compared with PBS: measured every day for 10 days
# Description: In order to examine whether or not the body weight-reducing effect confirmed in Example 7-2 has a connection with a decrease in food intake, PBS, [D-Leu-4]-OB3, L-PTD 13-[D-Leu-4]-OB3 or D-PTD 13-[D-Leu-4]-OB3 was administered intranasally at a dose of 2 mg/kg, and the food intake was measured everyday for 10 days.
# [3] = system: hair follicle and dermis of the skin (male BALB/c mice); assay: Hair follicle penetration of FITC-labeled TCTP-PTD after transdermal administration (fluorescence microscopy); format: in vivo, mouse; details: 100 μl of 100 μM FITC-labeled peptide on 1 cm^2, 2 hours
# Description: Male BALB/c mice (7-8-week-old) were prepared, and the abdominal region of the mice was shaved. Next, the mice were anesthetized by intraperitoneal injection of urethane (1.2-1.5 g/kg), and then 100 μl of each TCTP-PTD peptide solution was applied to the abdominal region of each mouse so as to be administered transdermally. Each of the peptide solutions was applied to an area of 1 cm^2.
# 2 hours after transdermal administration, the skin tissue was collected, fixed with 10% formalin for about 24 hours, and then treated with 30% sucrose solution for 4 hours. The pretreated skin tissue was immersed in OCT-compound, and then treated with liquid nitrogen to prepare a frozen block. The skin tissue was sectioned to a thickness of 20 μm by use of a cryotome and attached to a slide. The slide having the skin tissue attached thereto was washed five times with PBS, and then the nucleus was stained with DAPI (blue fluorescence).
# The amino terminus of L-PTD 13 or D-PTD 13 was labeled with FITC (green fluorescence), and then each PTD peptide was dissolved in PBS (phosphate buffered saline, pH 7.4) to a final concentration of 100 μM.
# Male BALB/c mice (7-8-week-old) were prepared, and the abdominal region of the mice was shaved. Next, the mice were anesthetized by intraperitoneal injection of urethane (1.2-1.5 g/kg), and then 100 μl of each of the FITC-labeled L-PTD 13 or D-PTD 13 solution was applied to the abdominal region of each mouse so as to be administered transdermally. Each of the peptide solutions was applied to an area of 1 cm^2.
# [4] = system: human bronchial epithelial cell line BEAS-2B; assay: Cell membrane penetration of FITC-labeled L-/D-form TCTP-PTD 13 by flow cytometry; format: cell-based; details: BEAS-2B cells, 2.5 μM FITC-labeled peptide, 30 minutes
# Description: The human bronchial epithelial cell line BEAS-2B was prepared, and the cell membrane penetration ability of the TCTP-PTD peptide according to the amino acid type was analyzed by flow cytometry. Specifically, BEAS-2B cells were seeded on a 6-well plate at a density of 8×10^5 cells/well, and then cultured in cell culture medium (BEGM) for 24 hours. After 24 hours of cell culture, each well was washed twice with PBS, and then each well was treated with FITC-labeled L-form TCTP-PTD 13 (hereinafter referred to as L-PTD 13; SEQ ID NO: 27) or FITC-labeled D-form TCTP-PTD 13 (hereinafter referred to as D-PTD 13; SEQ ID NO: 27) diluted in cell culture medium such that the concentration of each TCTP-PTD would be 2.5 μM. 30 minutes after the cells were treated with the two kinds of TCTP-PTD 13, the cells were isolated from each well by use of 0.25% trypsin, and then washed 6 times with cold PBS to remove TCTP-PTD from the cell surface.
# [5] = system: cervical cancer cell line HeLa; assay: Cell membrane penetration of FITC-labeled TCTP-PTD peptides in HeLa cells (fluorescence reader); format: cell-based; details: 10 μM FITC-labeled peptide, 15 minutes
# Description: The cervical cancer cell line HeLa was prepared. To detect TCTP-PTD accumulated in cells after passage through the cell membrane, the N-terminus of the synthesized peptide was labeled with FITC (fluorescein isothicyanate). Then, the cervical cancer cell line Hela was treated with 10 μM of the FITC-labeled TCTP-PTD of SEQ ID NO: 18, SEQ ID NO: 22, SEQ ID NO: 24 or SEQ ID NO: 27 for 15 minutes. After completion of the incubation, the cells were washed three times with PBS to remove FITC-TCTP-PTD remaining on the cell membrane of the HeLa cells. 500 μl of PBS was added, and then the fluorescence intensity of the FITC was measured with a fluorescence reader at 495 nm and 517 nm.
# [6] = system: type 2 diabetic model mice (db/db mice); assay: Blood glucose-lowering effect of intranasal TCTP-PTD/Ex-4 mixture in type 2 diabetic model mice after i.p. glucose; format: in vivo, mouse; details: Ex-4 10 μg/kg, 10 μM Ex-4 + 20 μM peptide, glucose 2.5 g/kg i.p., monitored 240 minutes
# Description: Male db/db mice weighing 31-34 g were used as experimental animals. The mice were fasted overnight, and then the blood glucose level in the mice were measured using a blood glucose meter.
# 20 minutes after anesthesia, each of the prepared Ex-4/TCTP-PTD mixtures was administered intranasally to the mice (Ex-4 dose: 10 μg/kg), and a control group was administered intranasally with the same amount of Ex-4, and a negative control group was administered intranasally with the same amount of PBS. After 15 minutes, glucose (2.5 g/kg) was injected intraperitoneally to the mice, and the blood glucose level in the mice was monitored for 240 minutes.
# [7] = system: normal male white Wistar rats; assay: Pharmacodynamic profile of nasal insulin formulations in normal white rats (blood glucose); format: in vivo, rat; details: subcutaneous
# Description: After design of the nasal insulin formulations, evaluation of the pharmacodynamic profile of each nasal insulin formulation was performed in normal white rats. Specifically, male white Wistar rats weighing 165-200 g were used as experimental animals. For accuracy of evaluation, the […] were fasted overnight, and then white rats having a blood glucose level of 90-120 mg/dL in the fasted state were used in the experiment. To calculate PA (pharmacological availability), the initial blood glucose level was taken as 100%. To administer the nasal insulation formulations, the mice were anesthetized by intraperitoneal administration of the anesthetic sodium pentobarbital (dose: 65 mg/kg).
# [8] = Plasma insulin concentration after intranasal administration of insulin/TCTP-PTD mixtures (ELISA); details: rats, insulin 0.5 IU/kg, 50 μM insulin + 100 μM peptide, peptides compared with SEQ ID NO: 27
# Description: Male Wistar rats weighing 180-190 g were used as experimental animals and anesthetized in the same manner as described above.
# [9] = Pharmacokinetic profile of nasal insulin formulations (plasma insulin); details: rats
# [10] = system: type 1 diabetic model mice (STZ-induced male ICR mice); assay: Blood glucose-lowering effect of intranasal TCTP-PTD/insulin mixture in type 1 diabetic model mice; format: in vivo, mouse; details: insulin 2 IU/kg, insulin:peptide 1:2, monitored 240 minutes
# Description: Streptozotocin (STZ) was injected intraperitoneally into male ICR mice (body weight: 33-34.5 g) four times (doses: 100, 50, 50 and 50 mg/kg) at 2-day intervals to induce type 1 diabetes. At 7 days after last administration of STZ, mice having a blood glucose level of 300-350 mg/dL were selected as experimental animals.
# [11] = system: type 1 diabetic white rats (alloxan-induced); assay: Pharmacodynamic profile of nasal insulin formulations in type 1 diabetic (alloxan) rats; format: in vivo, rat; details: type 1 diabetic rats
# Description: Alloxan was injected intraperitoneally to experimental white rats to induce type 1 diabetes. One week after alloxan administration, white rats having a blood glucose level of 230-300 mg/dL were used as experimental animals.
substance,measurement,setting,value
D-PTD 13-[D-Leu-4]-OB3: peptide (SEQ ID NO: 124) comprising [D-Leu-4]-OB3 linked to D-PTD 13 by a GG linker ([dM][dI][dI][dF][dR][dA][dL][dI][dS][dH][dK][dK]GGSCS[dL]PQT),body weight after 10 days compared with PBS or OB3,[1],decreased
same,rate of increase in body weight for 10 days compared with PBS or OB3,[1],lower
same,total food intake after 10 days of administration,[2],decreased
same,cumulative food intake compared with PBS,[2],decreased continuously
D-PTD 13: D-form TCTP-PTD 13; SEQ ID NO: 27 ([dM][dI][dI][dF][dR][dA][dL][dI][dS][dH][dK][dK]),penetration to hair follicle and dermis of the skin,[3],reached the hair follicle and dermis of the skin
same,ability to penetrate the cell membrane (flow cytometry),[4],excellent ability to penetrate the cell membrane
same,"body weight-reducing and appetite-inhibiting effects, D-form vs L-form","[1]; peptide linked to [D-Leu-4]-OB3, intranasal 2 mg/kg, 10 days, results of Examples 7-2 and 7-3 together",better effects than L-PTD 13
L-PTD 13-[D-Leu-4]-OB3: peptide (SEQ ID NO: 124) comprising [D-Leu-4]-OB3 linked to L-PTD 13 by a GG linker (MIIFRALISHKKGGSCS[dL]PQT),body weight after 10 days compared with PBS or OB3,[1],decreased
same,rate of increase in body weight for 10 days compared with PBS or OB3,[1],lower
same,total food intake after 10 days of administration,[2],decreased
same,cumulative food intake compared with PBS,[2],decreased continuously
L-PTD 13: L-form TCTP-PTD 13; SEQ ID NO: 27 (MIIFRALISHKK; PTD #27),penetration to hair follicle and dermis of the skin,[3],reached the hair follicle and dermis of the skin
same,ability to penetrate the cell membrane (flow cytometry),[4],excellent ability to penetrate the cell membrane
SEQ ID NO: 1: variant TCTP-PTD peptide (LIIFRALISHKK; PTD #1),penetration to hair follicle and dermis of the skin,[3],reached the hair follicle and dermis of the skin
SEQ ID NO: 12: variant TCTP-PTD peptide (MIIFRLAAYHKK; PTD #12),penetration to hair follicle and dermis of the skin,[3],reached the hair follicle and dermis of the skin
SEQ ID NO: 17: variant TCTP-PTD peptide (MIIFRIAAYPKK; PTD #17),penetration to hair follicle and dermis of the skin,[3],reached the hair follicle and dermis of the skin
"SEQ ID NO: 27: TCTP-PTD peptide of Korean Patent No. 10-0859972, basis of the variants (MIIFRALISHKK; PTD #27)",fluorescence of FITC-labeled peptide in cells (cell membrane penetration),[5],high level of fluorescence
same,blood glucose level after i.p. glucose / blood glucose-lowering effect,[6],increase the blood glucose-lowering effect of Ex-4
insulin,AAC 0-180 min (area above the blood glucose level-time curve),[7]; insulin 0.5 IU/kg,2560
same,PA % (pharmacological availability),[7]; insulin 0.5 IU/kg (reference),100%
same,blood insulin concentration / insulin uptake,[8],little or no change in the blood insulin concentration
same,BA % (relative bioavailability vs s.c. insulin),"[9]; nasal, insulin 5 IU/kg, listed as Free insulin",3.34 ± 0.38%
same,BA %,"[9]; subcutaneous, insulin 0.25 IU/kg (reference)",100%
same,change in blood glucose level,[10],no significant change in the blood glucose level
same,AAC 0-240 min (area above the blood glucose level-time curve),"[11]; nasal, insulin 2 IU/kg",2156.65 ± 1070.68
same,AAC 0-240 min (area above the blood glucose level-time curve),"[11]; subcutaneous, insulin 1 IU/kg",26897.33 ± 772.31
same,PA %,"[11]; subcutaneous, insulin 1 IU/kg (reference)",100%
